# Results from ChEMBL document CHEMBL1255421, “In vitro fungicidal activities of echinocandins against Candida metapsilosis, C. orthopsilosis, and C. parapsilosis evaluated by time-kill studies” (2010).
# Active and inactive are the calls of the source. The calls are words filed in the database; no cut-off is given here. Numbered stars: 1 amine (or outer) side, 2 acyl side, 3 side chain; on linkers, the order of the positions; unused ones are H or OH. Bridge positions count the residues as written; N and C are the ends. Square brackets hold non-standard residues; d marks the D form. Peptide text beside a SMILES is read from it. * marks the point of attachment. hTyr(3S-OH,4S-OH,3'-OSO3H) = N[C@H](C(=O)O)[C@H](O)[C@@H](O)c1ccc(O)c(OS(=O)(=O)O)c1; Orn(4R-OH,5R-OH) = O=C([C@H](C[C@@H](O)[C@@H](O)N[*:3])N[*:1])[*:2]; Pro(3S-OH,4S-Me) = C[C@H]1CN[C@H](C(=O)O)[C@H]1O; X1 = CCCCCOc1ccc(-c2cc(-c3ccc(C(=O)*)cc3)no2)cc1; Gln(3R-OH) = NC(=O)C[C@@H](O)[C@H](N)C(=O)O; Hyp = O=C(O)[C@@H]1C[C@@H](O)CN1
# Tests used:
# [1] = tested on: Candida parapsilosis; test: Antifungal activity against Candida parapsilosis clinical isolate bloodstream form assessed as time required for 90% reduction in fungal growth at 16 mg/L by time-kill assay; type: functional
# [2] = tested on: Candida parapsilosis; test: Antifungal activity against Candida parapsilosis clinical isolate bloodstream form assessed as time required for 99.9% reduction in fungal growth at 1 mg/L by time-kill assay; type: functional
# [3] = tested on: Candida metapsilosis; test: Fungicidal activity against Candida metapsilosis isolate CP-133 bloodstream form by CLSI method; type: functional; conditions: Lodderomyces metapsilosis
# [4] = tested on: Candida parapsilosis; test: Antifungal activity against Candida parapsilosis clinical isolate bloodstream form assessed as time required for 90% reduction in fungal growth at 1 mg/L by time-kill assay; type: functional
# [5] = tested on: Candida orthopsilosis; test: Antifungal activity against Candida orthopsilosis clinical isolate bloodstream form assessed as time required for 50% reduction in fungal growth at 1 mg/L by time-kill assay; type: functional
# [6] = tested on: Candida metapsilosis; test: Antifungal activity against Candida metapsilosis clinical isolate bloodstream form assessed as time required for 99.9% reduction in fungal growth at 16 mg/L by time-kill assay; type: functional
# [7] = tested on: Candida orthopsilosis; test: Antifungal activity against Candida orthopsilosis clinical isolate bloodstream form assessed as time required for 90% reduction in fungal growth at 1 mg/L by time-kill assay; type: functional
# [8] = tested on: Candida orthopsilosis; test: Antifungal activity against Candida orthopsilosis clinical isolate bloodstream form assessed as time required for 50% reduction in fungal growth at 4 mg/L by time-kill assay; type: functional
# [9] = tested on: Candida metapsilosis; test: Antifungal activity against Candida metapsilosis clinical isolate bloodstream form assessed as time required for 99.9% reduction in fungal growth at 1 mg/L by time-kill assay; type: functional
# [10] = tested on: Candida metapsilosis; test: Antifungal activity against Candida metapsilosis clinical isolate bloodstream form assessed as time required for 90% reduction in fungal growth at 1 mg/L by time-kill assay; type: functional
# [11] = tested on: Candida metapsilosis; test: Antifungal activity against Candida metapsilosis clinical isolate bloodstream form assessed as mild induction of fungal death at 0.03 to 32 mg/L after 6 hrs by time-kill assay; type: functional, organism-based
# [12] = tested on: Candida metapsilosis; test: Antifungal activity against Candida metapsilosis clinical isolate bloodstream form assessed as time required for 90% reduction in fungal growth at 0.25 mg/L by time-kill assay; type: functional
# [13] = tested on: Candida orthopsilosis; test: Antifungal activity against Candida orthopsilosis clinical isolate bloodstream form assessed as time required for 99% reduction in fungal growth at 1 mg/L by time-kill assay; type: functional
# [14] = tested on: Candida metapsilosis; test: Antifungal activity against Candida metapsilosis clinical isolate bloodstream form assessed as time required for 99% reduction in fungal growth at 1 mg/L by time-kill assay; type: functional
# [15] = tested on: Candida parapsilosis; test: Antifungal activity against Candida parapsilosis clinical isolate bloodstream form assessed as time required for 50% reduction in fungal growth at 0.25 mg/L by time-kill assay; type: functional
# [16] = tested on: Candida orthopsilosis; test: Antifungal activity against Candida orthopsilosis clinical isolate bloodstream form assessed as time required for 99.9% reduction in fungal growth at 16 mg/L by time-kill assay; type: functional
# [17] = tested on: Candida parapsilosis; test: Antifungal activity against Candida parapsilosis clinical isolate bloodstream form assessed as time required for 99% reduction in fungal growth at 1 mg/L by time-kill assay; type: functional
# [18] = tested on: Candida orthopsilosis; test: Antifungal activity against Candida orthopsilosis clinical isolate bloodstream form assessed as mild induction of fungal death at 0.03 to 32 mg/L after 6 hrs by time-kill assay; type: functional, organism-based
# [19] = tested on: Candida parapsilosis; test: Antifungal activity against Candida parapsilosis clinical isolate bloodstream form assessed as time required for 99.9% reduction in fungal growth at 0.25 mg/L by time-kill assay; type: functional
# [20] = tested on: Candida orthopsilosis; test: Antifungal activity against Candida orthopsilosis clinical isolate bloodstream form assessed as time required for 90% reduction in fungal growth at 16 mg/L by time-kill assay; type: functional
# [21] = tested on: Candida parapsilosis; test: Antifungal activity against Candida parapsilosis clinical isolate bloodstream form assessed as time required for 50% reduction in fungal growth at 32 mg/L by time-kill assay; type: functional
# [22] = tested on: Candida metapsilosis; test: Antifungal activity against Candida metapsilosis clinical isolate bloodstream form assessed as time required for 90% reduction in fungal growth at 32 mg/L by time-kill assay; type: functional
# [23] = tested on: Candida metapsilosis; test: Fungicidal activity against Candida metapsilosis isolate CP-132 bloodstream form by CLSI method; type: functional; conditions: Lodderomyces metapsilosis
# [24] = tested on: Candida orthopsilosis; test: Antifungal activity against Candida orthopsilosis clinical isolate bloodstream form assessed as time required for 90% reduction in fungal growth at 4 mg/L by time-kill assay; type: functional
# [25] = tested on: Candida orthopsilosis; test: Antifungal activity against Candida orthopsilosis clinical isolate bloodstream form assessed as time required for 99.9% reduction in fungal growth at 0.25 mg/L by time-kill assay; type: functional
# [26] = tested on: Candida orthopsilosis; test: Antifungal activity against Candida orthopsilosis clinical isolate bloodstream form assessed as induction of fungal killing rate at 0.03 to 32 mg/L measured at 6 hrs by time-kill assay; type: functional, organism-based
# [27] = tested on: Candida parapsilosis; test: Antifungal activity against Candida parapsilosis clinical isolate bloodstream form assessed as time required for 99% reduction in fungal growth at 0.25 mg/L by time-kill assay; type: functional
# [28] = tested on: Candida orthopsilosis; test: Antifungal activity against Candida orthopsilosis clinical isolate bloodstream form assessed as time required for 50% reduction in fungal growth at 0.25 mg/L by time-kill assay; type: functional
# [29] = tested on: Candida metapsilosis; test: Fungicidal activity against Candida metapsilosis isolate ATC193 bloodstream form by CLSI method; type: functional; conditions: Lodderomyces metapsilosis, isolate ATC-193
# [30] = tested on: Candida orthopsilosis; test: Fungicidal activity against Candida orthopsilosis isolate CP-131 bloodstream form by CLSI method; type: functional; conditions: Lodderomyces orthopsilosis
# [31] = tested on: Candida metapsilosis; test: Antifungal activity against Candida metapsilosis clinical isolate bloodstream form assessed as time required for 50% reduction in fungal growth at 0.25 mg/L by time-kill assay; type: functional
# [32] = tested on: Candida metapsilosis; test: Antifungal activity against Candida metapsilosis clinical isolate bloodstream form assessed as time required for 99.9% reduction in fungal growth at 32 mg/L by time-kill assay; type: functional
# [33] = tested on: Candida parapsilosis; test: Antifungal activity against Candida parapsilosis clinical isolate bloodstream form assessed as inhibition of fungal regrowth at 0.03 to 32 mg/L after 6 hrs by time-kill assay; type: functional, organism-based
# [34] = tested on: Candida metapsilosis; test: Antifungal activity against Candida metapsilosis clinical isolate bloodstream form assessed as time required for 90% reduction in fungal growth at 4 mg/L by time-kill assay; type: functional
# [35] = tested on: Candida parapsilosis; test: Antifungal activity against Candida parapsilosis clinical isolate bloodstream form assessed as time required for 50% reduction in fungal growth at 16 mg/L by time-kill assay; type: functional
# [36] = tested on: Candida orthopsilosis; test: Antifungal activity against Candida orthopsilosis clinical isolate bloodstream form assessed as time required for 99.9% reduction in fungal growth at 4 mg/L by time-kill assay; type: functional
# [37] = tested on: Candida metapsilosis; test: Antifungal activity against Candida metapsilosis clinical isolate bloodstream form assessed as time required for 99% reduction in fungal growth at 4 mg/L by time-kill assay; type: functional
# [38] = tested on: Candida metapsilosis; test: Antifungal activity against Candida metapsilosis clinical isolate bloodstream form assessed as time required for 50% reduction in fungal growth at 4 mg/L by time-kill assay; type: functional
# [39] = tested on: Candida metapsilosis; test: Antifungal activity against Candida metapsilosis clinical isolate bloodstream form assessed as time required for 50% reduction in fungal growth at 16 mg/L by time-kill assay; type: functional
# [40] = tested on: Candida metapsilosis; test: Antifungal activity against Candida metapsilosis clinical isolate bloodstream form assessed as induction of fungal killing rate at 0.03 to 32 mg/L measured at 6 hrs by time-kill assay; type: functional, organism-based
# [41] = tested on: Candida metapsilosis; test: Antifungal activity against Candida metapsilosis clinical isolate bloodstream form assessed as time required for 99.9% reduction in fungal growth at 0.25 mg/L by time-kill assay; type: functional
# [42] = tested on: Candida parapsilosis; test: Antifungal activity against Candida parapsilosis clinical isolate bloodstream form assessed as time required for 99.9% reduction in fungal growth at 4 mg/L by time-kill assay; type: functional
smiles,measurement,setting,value
"CCCCCOc1ccc(-c2cc(-c3ccc(C(=O)N[C@H]4C[C@@H](O)[C@@H](O)NC(=O)[C@@H]5[C@@H](O)[C@@H](C)CN5C(=O)[C@H]([C@H](O)CC(N)=O)NC(=O)[C@H]([C@H](O)[C@@H](O)c5ccc(O)c(OS(=O)(=O)O)c5)NC(=O)[C@@H]5C[C@@H](O)CN5C(=O)[C@H]([C@@H](C)O)NC4=O)cc3)no2)cc1 [MICAFUNGIN] (X1-[Orn(4R-OH,5R-OH)]T[Hyp][hTyr(3S-OH,4S-OH,3'-OSO3H)][Gln(3R-OH)][Pro(3S-OH,4S-Me)]; lactam 1-C)",Time,[1],31.55 h
same,Time,[2],inactive
same,MIC,[3],0.12 µg/mL
same,Time,[4],inactive
same,Time,[5],3.05 h
same,Time,[6],14.41 h
same,Time,[7],10.13 h
same,Time,[8],1.66 h
same,Time,[9],30.46 h
same,Time,[10],10.15 h
same,Activity,[11],Active
same,Time,[12],>48 h
same,Time,[13],20.26 h
same,Time,[14],20.3 h
same,Time,[15],inactive
same,Time,[16],13.76 h
same,Time,[17],inactive
same,Activity,[18],Active
same,Time,[19],inactive
same,Time,[20],4.59 h
same,Time,[21],6.16 h
same,Time,[22],4.76 h
same,MIC,[23],0.5 µg/mL
same,Time,[24],5.53 h
same,Time,[25],>48 h
same,Activity,[26],inactive
same,Time,[27],inactive
same,Time,[28],15.93 h
same,MIC,[29],0.25 µg/mL
same,MIC,[30],0.25 µg/mL
same,Time,[31],>48 h
same,Time,[32],14.29 h
same,inhibition,[33],inactive
same,Time,[34],5.89 h
same,Time,[35],9.5 h
same,Time,[36],16.59 h
same,Time,[37],11.79 h
same,Time,[38],1.77 h
same,Time,[39],1.45 h
same,Activity,[40],inactive
same,Time,[41],>48 h
same,Time,[42],>48 h
